Reference: ChEMBL document CHEMBL1128635, “Structure-activity studies of the natural product substance P antagonist win 64821” (Bioorg Med Chem Lett, 1995)

What follows are compounds tested against Substance-P receptor (Homo sapiens, UniProt P25103) (assay: Antagonistic activity against Tachykinin receptor 1).
Type: functional

Chain of Substance-P receptor (P25103 whole entry): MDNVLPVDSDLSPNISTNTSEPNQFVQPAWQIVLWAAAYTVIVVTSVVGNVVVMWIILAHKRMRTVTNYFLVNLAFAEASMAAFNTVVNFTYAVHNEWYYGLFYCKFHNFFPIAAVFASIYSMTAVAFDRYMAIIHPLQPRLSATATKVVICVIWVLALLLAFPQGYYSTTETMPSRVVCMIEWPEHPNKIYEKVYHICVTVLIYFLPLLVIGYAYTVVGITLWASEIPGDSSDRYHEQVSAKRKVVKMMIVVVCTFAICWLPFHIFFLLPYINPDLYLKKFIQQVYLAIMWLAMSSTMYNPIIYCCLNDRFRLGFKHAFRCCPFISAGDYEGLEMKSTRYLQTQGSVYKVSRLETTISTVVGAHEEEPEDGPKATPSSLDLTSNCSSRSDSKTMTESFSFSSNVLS

SMILES	IC50 [µM]
O=C1N[C@@H](Cc2ccccc2)C(=O)N2[C@H]3Nc4ccccc4[C@@]3(O)C[C@@H]12	> 100
O=C1N[C@@H](Cc2ccccc2)C(=O)N2[C@H]3Nc4ccccc4C3(C34C[C@H]5C(=O)N[C@@H](Cc6ccccc6)C(=O)N5[C@H]3Nc3ccccc34)C[C@@H]12 (stereo partly drawn)	0.24
Cc1cccc2c1C1(C34C[C@H]5C(=O)N[C@@H](Cc6ccccc6)C(=O)N5[C@H]3Nc3cccc(C)c34)C[C@H]3C(=O)N[C@@H](Cc4ccccc4)C(=O)N3[C@H]1N2 (stereo partly drawn)	5.7
O=C1N[C@@H](Cc2ccccc2)C(=O)N2[C@H]1C[C@@]1(Cc3cc([N+](=O)[O-])ccc3O)c3ccccc3N[C@@H]21	98
COc1ccc(N)cc1C[C@]12C[C@H]3C(=O)N[C@@H](Cc4ccccc4)C(=O)N3[C@H]1Nc1ccccc12	26
COc1ccc([N+](=O)[O-])cc1C[C@@]12C[C@H]3C(=O)N[C@@H](Cc4ccccc4)C(=O)N3[C@@H]1Nc1ccccc12	88
COc1ccc(N)cc1C[C@@]12C[C@H]3C(=O)N[C@@H](Cc4ccccc4)C(=O)N3[C@@H]1Nc1ccccc12	38
COc1ccc([N+](=O)[O-])cc1C[C@]12C[C@H]3C(=O)N[C@@H](Cc4ccccc4)C(=O)N3[C@H]1Nc1ccccc12	54
O=C1N[C@@H](Cc2ccccc2)C(=O)N2[C@H]3Nc4ccccc4[C@@]3(Cc3cc([N+](=O)[O-])ccc3O)C[C@@H]12	48
O=C1N[C@@H](Cc2ccccc2)C(=O)N2[C@H]1C[C@@]1(O)c3ccccc3N[C@@H]21	> 100
Cc1cccc2c1C1(C34C[C@H]5C(=O)N[C@@H](Cc6ccccc6)C(=O)N5[C@H]3Nc3ccccc34)C[C@H]3C(=O)N[C@@H](Cc4ccccc4)C(=O)N3[C@H]1N2 (stereo partly drawn)	0.44
O=C1[C@@H]2C[C@@]3(Cc4cc([N+](=O)[O-])ccc4O)c4ccccc4N[C@H]3N2C(=O)[C@H](Cc2ccccc2)N1Cc1cc([N+](=O)[O-])ccc1O	> 100
O=C1[C@@H]2C[C@]3(Cc4cc([N+](=O)[O-])ccc4O)c4ccccc4N[C@@H]3N2C(=O)[C@H](Cc2ccccc2)N1Cc1cc([N+](=O)[O-])ccc1O	> 100
